{
  "source": "patent US10736910B2",
  "about": "“Treatment of autophagy-based disorders and related pharmaceutical compositions, diagnostic and screening assays and kits” (STC.UNM, priority 2012, dated 2020)",
  "key": {"[1]": {"system": "Atg5fl/fl LysM-Cre− and Cre+ bone marrow-derived macrophages (BMM)", "test": "IL-1α release (ELISA) from LPS- and IFN-γ-stimulated bone marrow-derived macrophages", "format": "cell-based, murine", "conditions": "12 h; for IL-1α secreted: autophagy-competent Atg5fl/fl LysM-Cre− BMM, LPS and IFN-γ stimulated, 50 μg/ml rapamycin, 10 mM 3-MA or 100 nM Bafilomycin A1", "excerpt": "FIG. 5. Excess cytokine secretion is a cell-autonomous property of autophagy-deficient macrophages and IL-1α hypersecretion by Atg5^fl/fl LysM-Cre^+ macrophages depends on reactive oxygen intermediates and calpain. (A-C) In vitro cytokine (IL-1α, CXCL1, and IL-12p70) release (ELISA) from LPS- and IFN-γ-stimulated Atg5^fl/fl LysM-Cre^− and Cre^+ bone marrow-derived macrophages (BMM). (D) CXCL1 released from LPS- and IFN-γ-stimulated Atg5^fl/fl LysM-Cre^+ BMM in the absence of presence of IL-1RA ([…]). (E) Fraction of 7-AAD^+ BMM after LPS and IFN-γ stimulation in vitro. (F,G) IL-1α and CXCL1 levels (ELISA) in lung homogenates of uninfected Atg5^fl/fl LysM-Cre^− and Cre^+ mice. (H,I) IL-1α (ELISA) released from LPS- and IFN-γ stimulated Atg5^fl/fl LysM-Cre BMM in the presence of 50 μg/ml rapamycin (Rap), 10 mM 3-MA, or 100 nM Bafilomycin A1 (Baf A1) after 12 h of stimulation. (J) IL-1α secretion during inflammasome activation. Atg5^fl/fl LysM-Cre^− and Cre^+ BMM were pretreated overnight with LPS (100 ng/ml) then stimulated for 1 h in the absence or presence of the inflammasome agonist silica (250 μg/ml) in EBSS. (K) IL-1α secretion in the presence of caspase 1 inhibitor YVAD. Atg5^fl/fl LysM-Cre^− and Cre^+ BMM were pretreated overnight with LPS (100 ng/ml) then stimulated for 1 h in the absence or presence of YVAD (50 μM) during inflammasome activation with silica as in J. (L) Effects of caspase 1 siRNA knockdown (immunoblot, left) on IL-1α release (graph, right) from Atg5^fl/fl LysM-Cre^+ BMM. Graph (center), IL-1α release from LPS-stimulated siRNA-treated Atg5^fl/fl LysM-Cre^+ BMM in full media or EBSS (Starv). Graph (right), same as middle graph in full medium only. Casp 1, caspase 1 siRNA: Scr, scrambled, control siRNA. (M) IL-1α release from LPS- and IFN-γ-stimulated Atg5^fl/fl LysM-Cre^+ BMM knocked down with siRNA for inflammasome components ASC and NLRP3. (N,O) ROS inhibition and IL-1 secretion: IL-1α (N) and IL-1β (0) released (ELISA) from LPS- and IFN-γ-stimulated Atg5^fl/fl LysM-Cre^− and Cre^+ BMM in the absence or presence of ROS antagonist APDC (50 μM) after 12 h of incubation. (P) Calpain and […] hypersecretion phenotype. IL-1β (ELISA) released from LPS- and IFN-γ stimulated Atg5^fl/fl LysM-Cre^− and Cre^+ BMM in the absence or presence of calpain inhibitor ALLN (100 μM) after 12 h of stimulation. Data, mean±SE, *p<0.05, **p<0.01, † p>0.05 (t test; n≥3).\n(§1) All cells were pretreated with Stain FcX (anti-CD16/32) (Biolegend) before being stained for. […] Caspase 1 activity was measured by flow cytometry using the FLICA caspase 1 reagent (FAM-YVAD-FMK) (Immunochemistry Technologies). […] Secreted cytokines (IL-1αIL-1β CXCL1, CXCL2 and IL-12p70) were measured by ELISA (R&D Systems). […]"}, "[2]": {"system": "Atg5fl/fl LysM-Cre− and Cre+ bone marrow-derived macrophages (BMM)", "test": "IL-1β release (ELISA) from LPS- and IFN-γ-stimulated bone marrow-derived macrophages", "format": "cell-based, murine", "conditions": "APDC 50 μM, 12 h", "excerpt": "(§2) FIG. 5. Excess cytokine secretion is a cell-autonomous property of autophagy-deficient macrophages and IL-1α hypersecretion by Atg5^fl/fl LysM-Cre^+ macrophages depends on reactive oxygen intermediates and calpain. (A-C) In vitro cytokine (IL-1α, CXCL1, and IL-12p70) release (ELISA) from LPS- and IFN-γ-stimulated Atg5^fl/fl LysM-Cre^− and Cre^+ bone marrow-derived macrophages (BMM). (D) CXCL1 released from LPS- and IFN-γ-stimulated Atg5^fl/fl LysM-Cre^+ BMM in the absence of presence of IL-1RA ([…]). (E) Fraction of 7-AAD^+ BMM after LPS and IFN-γ stimulation in vitro. (F,G) IL-1α and CXCL1 levels (ELISA) in lung homogenates of uninfected Atg5^fl/fl LysM-Cre^− and Cre^+ mice. (H,I) IL-1α (ELISA) released from LPS- and IFN-γ stimulated Atg5^fl/fl LysM-Cre BMM in the presence of 50 μg/ml rapamycin (Rap), 10 mM 3-MA, or 100 nM Bafilomycin A1 (Baf A1) after 12 h of stimulation. (J) IL-1α secretion during inflammasome activation. […]\nFIG. 10. […] IL-1β secretion was examined in autophagy-competent Atg5fl/fl LysM-CreBMM and IL-1α secretion was measured in autophagy-deficient Atg5fl/fl LysM-Cre+ BMM. […]\nAll cells were pretreated with Stain FcX (anti-CD16/32) (Biolegend) before being stained for. […] Caspase 1 activity was measured by flow cytometry using the FLICA caspase 1 reagent (FAM-YVAD-FMK) (Immunochemistry Technologies). […]"}, "TBK-1": {"system": "TBK-1", "test": "IL-1β secretion with pharmacological TBK-1 inhibition (preliminary studies)", "format": "cell-based", "conditions": "preliminary studies with TBK-1 inhibitor"}, "BMM": {"system": "BMM", "test": "HMGB1 extracellular release from BMM (immunoblot of culture supernatants)", "format": "cell-based, murine", "conditions": "BMM stimulated with nigericin; largely diminished in Atg5-deficient BMM", "excerpt": "We tested whether induction of autophagy affected other proteins not connected to proteolytic processing in the inflammasome, such as HMGB1 (high mobility group box 1 protein). HMGB1 is a major pro-inflammatory alarmin or DAMP (damage-associated molecular pattern) normally present in the nucleus (34A). This chromatin-associated nuclear protein (with additional intracellular and extracellular signaling roles), upon exposure to inputs including those that induce autophagy (63A,64A), undergoes a complex set of biochemical and localization changes. In the process, it first translocates from the nucleus into the cytoplasm and then is released from the cytoplasm to act in tissue remodeling signaling (when acting alone) or as an inflammatory mediator (when combined with bacterial agonists or other alarmins such as IL-1β). […] HMGB1, along with additional unconventional substrates, depends on inflammasome for secretion although the protein itself is not subjected to proteolytic processing by caspase 1 (65A-68A)."}, "Atg5fl/fl LysM-Cre+ BMM": {"system": "Atg5fl/fl LysM-Cre+ BMM", "test": "CXCL1 release (ELISA) from LPS- and IFN-γ-stimulated Atg5fl/fl LysM-Cre+ BMM", "format": "cell-based, murine", "set-up": "dose or concentration left out as unconfirmed", "conditions": "IL-1RA", "excerpt": "as §2, §1"}, "naïve CD4 T cells": {"system": "naïve CD4 T cells", "test": "Ex vivo Th17 polarization of naïve CD4 T cells (intracellular IL-17A, flow cytometry)", "format": "cell-based, mice", "conditions": "20 ng/ml IL-1α in combination with 5 ng/ml TGF-β and 20 ng/ml IL-6, day 4", "method": "FIG. 9. T cell activation state and IL-1α role in T cell IL-17 polarization. (A,B) CD44 and CD25 expression on CD4 T cells from lungs of uninfected Atg5fl/fl LysM-Cre and Cre+mice. (C-F) Intracellular IL-17A production (day 4; release blocked with monensin) by naïve CD4 T cells polarized in the presence of cytokine cocktails: 5 ng/ml TGF-β and 20 ng/ml IL-6, plus 20 ng/ml IL-1α or 20 ng/ml IL-1β. Dot plot (panel C), levels of IL-17A in unstimulated cells (starting material). Histograms (D,E), IL-17A in naïve CD4 T cells polarized in the presence of TGF-β, IL-6 and IL-1α (panel D) or TGF-β, IL-6 and IL-1β (panel E). (F) Percent of IL-17A+CD4 T cells under respective polarizing conditions. Data: mean±SE; † p>0.05 (t test; n≥3).\nSingle cell suspensions from whole lungs isolated from naïve Atg5^fl/fl LysM-Cre^+ and Cre^− mice were cultured in RPMI 10% FBS and Cell Stimulation Cocktail (phorbol 12-myristate 13-acetate and ionomycin plus brefeldin A and monensin; eBioscience) for 4 h and analyzed by flow cytometry. […] After 4 days, cells were stimulated with 1× Cell Stimulation Cocktail in the presence of protein transport inhibitors for 5 hours at 37° C. and analyzed by flow cytometry."}},
  "note": "Square brackets hold non-standard residues; d marks the D form. Peptide text beside a SMILES is read from it. Nle = CCCC[C@H](N)C(=O)O",
  "data": [
    {"molecule": "Cn1cnc(N)c2ncnc1-2", "note": "[3MA, 3-methyladenine]", "values": [
      {"measurement": "IL-1α secreted", "setting": "[1]", "value": "significantly increased"}
    ]},
    {"molecule": "CCCC[C@@H](C=O)NC(=O)[C@H](CC(C)C)NC(=O)[C@H](CC(C)C)NC(C)=O", "note": "[ALLN] (Ac-Leu-Leu-[Nle]-aldehyde)", "values": [
      {"measurement": "excess IL-1α production", "setting": "[1]; LPS- and IFN-γ-stimulated Atg5fl/fl LysM-Cre+ BMM, ALLN 100 μM", "value": "completely inhibited the excess IL-1α production"}
    ]},
    {"molecule": "N[C@@]1(C(=O)O)CN[C@@H](C(=O)O)C1", "note": "[APDC, (2R,4R)-4-aminopyrrolidine-2,4-dicarboxylate]", "values": [
      {"measurement": "excessive IL-1β release", "setting": "[2]", "value": "inhibited excessive IL-1β release"},
      {"measurement": "excessive IL-1α release", "setting": "[1]; LPS- and IFN-γ-stimulated Atg5fl/fl LysM-Cre+ BMM, APDC 50 μM", "value": "abrogated excessive IL-1α"}
    ]},
    {"molecule": "O=C(NCCCNc1nc(Nc2cccc(NC(=O)N3CCCC3)c2)ncc1I)c1cccs1", "note": "[BX795]", "values": [
      {"measurement": "IL-1β secretion", "setting": "TBK-1", "value": "reduced"}
    ]},
    {"molecule": "CO/C1=C\\C(C)=C\\[C@@H](C)[C@@H](O)[C@@H](C)C/C(C)=C/C=C/[C@H](OC)[C@@H]([C@@H](C)[C@@H](O)[C@H](C)[C@@]2(O)C[C@@H](O)[C@H](C)[C@@H](C(C)C)O2)OC1=O", "note": "[bafilomycin A1]", "values": [
      {"measurement": "IL-1α secreted", "setting": "[1]", "value": "An effect similar to 3MA"}
    ]},
    {"molecule": "CO[C@@H]1C[C@@H](C[C@H]2CC[C@H](C)[C@H]([C@@H](C)C(=O)O)O2)O[C@]2(O[C@](C)([C@H]3CC[C@@](C)([C@@H]4O[C@@H]([C@H]5O[C@@](O)(CO)[C@H](C)C[C@@H]5C)C[C@@H]4C)O3)C[C@H]2C)[C@@H]1C", "note": "[nigericin]", "values": [
      {"measurement": "HMGB1 in culture supernatants", "setting": "BMM", "value": "An HMGB1 band was detected"}
    ]},
    {"molecule": "IL-1RA: IL-1 receptor antagonist (R&D Systems)", "values": [
      {"measurement": "CXCL1 levels", "setting": "Atg5fl/fl LysM-Cre+ BMM", "value": "lowered CXCL1 levels"}
    ]},
    {"molecule": "IL-1α: cytokine (R&D Systems) added at 20 ng/ml for T cell polarization (protein, UniProt P01583 113-271, looked up) Interleukin-1 alpha: SAPFSFLSNVKYNFMRIIKYEFILNDALNQSIIRANDQYLTAAALHNLDEAVKFDMGAYKSSKDDAKITVILRISKTQLYVTAQDEDQPVLLKEMPEIPKTITGSETNLLFFWETHGTKNYFTSVAHPNLFIATKQDYWVCLAGGPPSITDFQILENQA", "values": [
      {"measurement": "Th17 polarization (IL-17A+ CD4 T cells)", "setting": "naïve CD4 T cells", "value": "showed a capacity to promote Th17 polarization"}
    ]}
  ]
}
